Laboratory results from ChEMBL document CHEMBL5260828, “Amphiphilic glycoconjugates as potential anti-cancer chemotherapeutics” (Eur J Med Chem, 2018).
In brackets after ≈: the same amount, converted by molar mass. Blank lines part the entries; values can stand above or below the compound they belong to.

How the values were obtained:
A549 [1] = experiment: Cytotoxicity against human A549 cells assessed as cell growth inhibition incubated for 48 hrs by MTT assay; format: functional, cell-based; details: A549, 48 h
IGROV-1 [2] = experiment: Antiproliferative activity against human IGROV-1 cells assessed as inhibition of cell growth incubated for 72 hrs by Coulter counter assay; format: functional, cell-based; details: IGROV-1, 72 h
[3] = target: RAC-alpha serine/threonine-protein kinase (Homo sapiens, UniProt P31749); experiment: Inhibition of AKT1 (unknown origin) in presence of ATP by ELISA
IGROV-1 [4] = experiment: Antiproliferative activity against human IGROV-1 cells assessed as inhibition of cell growth incubated for 72 hrs in serum-free medium by Coulter counter assay; format: functional, cell-based; details: IGROV-1, 72 h
NCI-H292 = experiment: Cytotoxicity against human NCI-H292 cells assessed as reduction in cell viability incubated for 4 days by WST-1 assay; format: functional, cell-based; details: NCI-H292, 96 h
HepG2 = experiment: Cytotoxicity against human HepG2 cells assessed as cell growth inhibition by MTT colorimetric assay; format: functional, cell-based
Hep 3B2 = experiment: Cytotoxicity against human Hep3B cells assessed as cell growth inhibition by MTT colorimetric assay; format: functional, cell-based
Ca9-22 = experiment: Cytotoxicity against human Ca9-22 cells assessed as cell growth inhibition by MTT colorimetric assay; format: functional, cell-based
MDA-MB-231 [5] = experiment: Cytotoxicity against human MDA-MB-231 cells assessed as cell growth inhibition by MTT colorimetric assay; format: functional, cell-based
Jurkat = experiment: Inhibition of cell growth in human Jurkat cells at 25 ug/ml; format: functional
[6] = target: Sarcoplasmic/endoplasmic reticulum calcium ATPase 1 (Oryctolagus cuniculus, UniProt P04191); experiment: Inhibition of SERCA1a in rabbit Sarcoplasmic reticulum assessed as inhibition constant in presence of [gamma-32P]ATP and calcium ionophore A23187 by coupled enzyme assay; format: subcellular
HeLa S3 = experiment: Cytotoxicity against human HeLa S3 cells assessed as inhibition of cell proliferation incubated for 72 hrs by MTT assay; format: functional, cell-based; details: HeLa S3, 72 h
Ca-Ski = experiment: Cytotoxicity against human Ca-Ski cells assessed as inhibition of cell growth incubated for 24 hrs by MTT assay; format: functional, cell-based
HeLa = experiment: Cytotoxicity against human HeLa cells assessed as inhibition of cell growth incubated for 24 hrs by MTT assay; format: functional, cell-based
K562 = experiment: Cytotoxicity against human K562 cells assessed as cell growth inhibition incubated for 24 hrs by MTT assay; format: functional, cell-based; details: K562, 24 h
MDA-MB-231 [7] = experiment: Cytotoxicity against human MDA-MB-231 cells assessed as cell growth inhibition incubated for 24 hrs by MTT assay; format: functional, cell-based; details: MDA-MB-231, 24 h
Col2 = experiment: Cytotoxicity against human Col2 cells assessed as cell growth inhibition incubated for 24 hrs by MTT assay; format: functional, cell-based; details: Col2, 24 h
A549 [8] = experiment: Cytotoxicity against human A549 cells assessed as cell growth inhibition incubated for 24 hrs by MTT assay; format: functional, cell-based; details: A549, 24 h
KB = experiment: Cytotoxicity against human KB cells assessed as cell growth inhibition incubated for 24 hrs by MTT assay; format: functional, cell-based
Lung NSCLC-N6 cell-line = experiment: Cytotoxicity against human Lung NSCLC-N6 cell-line by MTT colorimetric assay; format: functional, cell-based
HEp-2 = experiment: Cytotoxicity against human HEp-2 cells assessed as cell growth inhibition by measuring effective dose; format: functional; details: read-out: ED50 (the source's name)
NUGC-3 = experiment: Cytotoxicity against human NUGC-3 cells assessed as cell growth inhibition incubated for 30 mins by MTT assay; format: functional, cell-based; details: NUGC-3, 0.5 h

Sequence of Sarcoplasmic/endoplasmic reticulum calcium ATPase 1 (P04191 whole entry): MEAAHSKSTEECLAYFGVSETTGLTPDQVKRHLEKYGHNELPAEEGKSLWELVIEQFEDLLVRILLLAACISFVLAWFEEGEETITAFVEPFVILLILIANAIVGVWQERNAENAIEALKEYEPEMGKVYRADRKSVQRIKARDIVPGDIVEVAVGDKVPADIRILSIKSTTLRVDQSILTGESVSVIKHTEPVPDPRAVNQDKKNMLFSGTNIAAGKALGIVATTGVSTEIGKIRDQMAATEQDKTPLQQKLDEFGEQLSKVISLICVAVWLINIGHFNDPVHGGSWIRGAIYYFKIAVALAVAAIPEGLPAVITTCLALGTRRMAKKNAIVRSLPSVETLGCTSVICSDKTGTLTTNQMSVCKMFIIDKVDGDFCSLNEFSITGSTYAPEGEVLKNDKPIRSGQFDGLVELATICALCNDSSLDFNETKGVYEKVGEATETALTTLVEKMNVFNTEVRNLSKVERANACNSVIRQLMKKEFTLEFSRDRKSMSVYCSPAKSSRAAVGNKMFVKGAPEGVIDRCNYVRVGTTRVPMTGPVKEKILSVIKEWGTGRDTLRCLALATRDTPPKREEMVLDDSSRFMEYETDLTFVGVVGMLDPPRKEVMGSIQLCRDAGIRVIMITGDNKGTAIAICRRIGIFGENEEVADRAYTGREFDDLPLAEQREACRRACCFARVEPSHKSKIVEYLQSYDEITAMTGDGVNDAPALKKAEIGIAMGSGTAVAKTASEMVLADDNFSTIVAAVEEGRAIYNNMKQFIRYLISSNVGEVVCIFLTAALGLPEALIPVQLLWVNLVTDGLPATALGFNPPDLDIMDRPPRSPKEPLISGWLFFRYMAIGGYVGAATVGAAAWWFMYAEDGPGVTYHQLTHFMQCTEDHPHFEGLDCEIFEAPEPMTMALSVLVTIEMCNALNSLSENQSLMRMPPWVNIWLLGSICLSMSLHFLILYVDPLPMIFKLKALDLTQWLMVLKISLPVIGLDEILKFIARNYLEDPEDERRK
Sequence of RAC-alpha serine/threonine-protein kinase (P31749 whole entry): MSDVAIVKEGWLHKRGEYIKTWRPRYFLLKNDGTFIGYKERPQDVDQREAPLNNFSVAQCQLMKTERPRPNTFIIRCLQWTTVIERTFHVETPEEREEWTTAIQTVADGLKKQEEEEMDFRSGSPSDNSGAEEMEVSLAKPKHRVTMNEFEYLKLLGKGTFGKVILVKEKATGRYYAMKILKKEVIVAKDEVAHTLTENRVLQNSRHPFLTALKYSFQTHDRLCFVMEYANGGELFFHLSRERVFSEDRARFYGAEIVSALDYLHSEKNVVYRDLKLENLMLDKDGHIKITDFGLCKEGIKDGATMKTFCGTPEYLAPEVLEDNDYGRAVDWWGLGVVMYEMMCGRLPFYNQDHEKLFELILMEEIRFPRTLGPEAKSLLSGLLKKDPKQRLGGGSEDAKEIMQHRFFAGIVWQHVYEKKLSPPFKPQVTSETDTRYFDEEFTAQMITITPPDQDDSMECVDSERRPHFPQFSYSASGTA

Compound: CCCCCCCCCCCCCCCC(=O)OCC(CO[C@H]1O[C@H](CS(=O)(=O)[O-])[C@@H](O)[C@H](O)[C@H]1O)OC(=O)CCCCCCCCCCCCCCC.[Na+] (stereo partly specified)
IC50 (A549 [1]): 83.5 µg/mL

Compound: CCCCCCCCCCCCCCCCCC(=O)OCC(CO[C@H]1O[C@H](CS(=O)(=O)[O-])[C@@H](O)[C@H](O)[C@H]1O)OC(=O)CCCCCCCCCCCCCCCCC.[Na+] (stereo partly specified)
IC50 (A549 [1]): 75.5 µg/mL

IC50 [3]: 19700 nM
Compound: CCCCCCCCCCCCCCCCCOC(=O)O[C@H](COC(=O)CCCCCCCCCCCCCCCCC)COP(=O)(O)O[C@@H]1[C@H](O)[C@H](OP(=O)(O)O)[C@@H](O)[C@H](O)[C@H]1O
IC50 (IGROV-1 [2]): 49000 nM
IC50 (IGROV-1 [4]): 3350 nM

Compound: COC[C@@H](C[C@H]1O[C@@](O)([C@H](O)[C@@H]2C[C@H](OC)[C@@H](O)CC/C=C(C)/C=C/[C@@H](O[C@@H]3O[C@@H](C)[C@H](OC)[C@@H](O)[C@@H]3O)[C@H](C)/C=C(C)/C=C(C)/C=C(/C)C(=O)O2)[C@H](C)[C@@H](O)[C@H]1C)O[C@H]1C[C@](C)(O)[C@@H](O[C@H]2C[C@@H](OC)[C@H](O)[C@@H](C)O2)[C@H](C)O1
EC50 (NCI-H292): 150 nM

Compound: CCCCCCCCCCCCOC[C@@H](COO)O[C@@H]1OC[C@@H](O)[C@@H](O)[C@@H]1O
IC50 (HepG2): 9.2 µg/mL (≈ 22.5 µM)
IC50 (Hep 3B2): 9.2 µg/mL (≈ 22.5 µM)
IC50 (Ca9-22): 9.2 µg/mL (≈ 22.5 µM)
IC50 (MDA-MB-231 [5]): 9.2 µg/mL (≈ 22.5 µM)

Compound: CCCCOC(=O)CCCCCCC/C=C/CCCCCC[C@H](C)O[C@@H]1O[C@H](COC(C)=O)[C@@H](O)[C@H](O)[C@H]1O[C@@H]1O[C@H](COC(C)=O)[C@@H](O)[C@H](O)[C@H]1O
inhibition at 25 µg/mL (Jurkat): 99.7%

Compound: CCCCCCCCCCCCCCOC[C@@H](COO)O[C@@H]1OC[C@@H](O)[C@@H](O)[C@@H]1O
IC50 (HepG2): 9.2 µg/mL (≈ 21.1 µM)
IC50 (Hep 3B2): 9.2 µg/mL (≈ 21.1 µM)
IC50 (Ca9-22): 9.2 µg/mL (≈ 21.1 µM)
IC50 (MDA-MB-231 [5]): 9.2 µg/mL (≈ 21.1 µM)

Compound: C/C=C/C/C(C)=C\[C@H]1C[C@H]2C=C[C@H](C[C@H](C)/C=C(\C)[C@@H](OC)C/C=C/[C@@H](O[C@@H]3O[C@H](CO)[C@@H](O)[C@H](OC)[C@H]3O)CC(=O)O1)OO2
Ki [6]: 18 nM
IC50 (HeLa S3): > 10000 nM

Compound: CC(=O)OC[C@H]1O[C@H]2O[C@@H](C)CCCCCC/C=C/CCCCCC(=O)O[C@@H]3[C@@H](O)[C@H](O[C@@H]2[C@@H](O)[C@@H]1O)O[C@H](COC(C)=O)[C@H]3O
IC50 (Ca-Ski): 82.2 µg/mL (≈ 124 µM)
IC50 (HeLa): 62.9 µg/mL (≈ 95.3 µM)

Compound: CCCCCCCCO[C@@H]1O[C@@H](C)[C@H](OC(=O)CCCCC)[C@@H](O[C@@H]2O[C@@H](C)[C@H](OC(C)=O)[C@@H](O[C@@H]3O[C@@H](C)[C@H](OC(C)=O)[C@@H](O[C@@H]4O[C@@H](C)[C@H](O)[C@@H](O)[C@H]4O)[C@H]3OC(C)=O)[C@H]2OC(C)=O)[C@H]1O
IC50 (K562): 700 nM
IC50 (MDA-MB-231 [7]): 700 nM
IC50 (Col2): 700 nM
IC50 (A549 [8]): 700 nM
IC50 (KB): 700 nM

Compound: CO[C@@H]1/C=C(\C)C[C@H](/C=C/C#C[C@H]2C[C@@H]2Cl)OC(=O)[C@@H](C)[C@]2(O)C[C@H](O[C@@H]3O[C@@H](C)[C@H](O[C@@H]4O[C@@H](C)[C@H](O)[C@@](C)(O)[C@H]4OC)[C@@](C)(O)[C@H]3OC)[C@@H](C)[C@@H](O2)[C@@H]1C
IC50 (Lung NSCLC-N6 cell-line): 15.1 µg/mL (≈ 18.5 µM)

Compound: CCCCCCCCCCCC(=O)O[C@@H]1[C@@H](O)[C@@H](OC(=O)/C=C/c2ccccc2)[C@H](O[C@@H]2[C@@H](O)[C@@H](OC(=O)[C@@H](C)CC)[C@H](O[C@@H]3[C@@H](O)[C@H]4OC(=O)CCCCCCCCC[C@@H](CCCCC)O[C@@H]5O[C@H](CO)[C@@H](O)[C@H](O)[C@H]5O[C@@H]4O[C@H]3C)O[C@H]2C)O[C@H]1C
EC50 (HEp-2): 3.5 µg/mL (≈ 2.8 µM)

Compound: CCCCCCCCCCCCCCCCCC(=O)OCC(O)CO[C@H]1O[C@H](CO)[C@@H](O)[C@H](O)[C@H]1O (stereo partly specified)
IC50 (NUGC-3): 110000 nM

Compound: CCCCCCCCCCCCOC[C@@H](COC(C)=O)O[C@@H]1OC[C@@H](O)[C@@H](O)[C@@H]1O
IC50 (HepG2): 9.2 µg/mL (≈ 21.2 µM)
IC50 (Hep 3B2): 9.2 µg/mL (≈ 21.2 µM)
IC50 (Ca9-22): 9.2 µg/mL (≈ 21.2 µM)
IC50 (MDA-MB-231 [5]): 9.2 µg/mL (≈ 21.2 µM)
